pIC50: −log10 of the molar value.
molecular target: T1, Neutrophil elastase (Homo sapiens, UniProt P08246); assay: Inhibitory activity was evaluated against human leukocyte elastase
T1 sequence (P08246 whole entry): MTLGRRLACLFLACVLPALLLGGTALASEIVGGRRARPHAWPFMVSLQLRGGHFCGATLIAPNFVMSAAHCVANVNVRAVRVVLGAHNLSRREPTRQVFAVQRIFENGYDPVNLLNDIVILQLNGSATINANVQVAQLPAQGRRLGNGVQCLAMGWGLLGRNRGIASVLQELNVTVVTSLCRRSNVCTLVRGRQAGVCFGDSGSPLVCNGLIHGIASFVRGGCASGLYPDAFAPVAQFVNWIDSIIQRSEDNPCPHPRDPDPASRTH

| pIC50 | Structure (SMILES) |
| --- | --- |
| 4.45 | CCCCCCCCCCCCCCCC(=O)c1c(O)cc(C)oc1=O |
| 2.79 | CCCCCCC(CCCC)c1cc(O)cc(=O)o1 (stereo not drawn) |
| 3.82 | CCCCCCCCCCCc1cc(O)cc(=O)[nH]1 |
| 2.50 | CCCCCCCCCCCc1cc(O)cc(=O)o1 |
| 4.57 | CCCCCCCCCCCC(=O)c1c(O)cc(C)oc1=O |

molecular target: T1, Neutrophil elastase; assay: Inhibitory activity was evaluated against human leukocyte elastase; Inactive

| IC50 | Structure (SMILES) |
| --- | --- |
| Not Active | CCCc1cc(O)cc(=O)o1 |
| Not Active | CCCCc1cc(O)cc(=O)o1 |
| Not Active | CCCCCCCc1cc(O)cc(O)n1 |
| Not Active | CCCC(=O)c1c(O)cc(C)oc1=O |
| Not Active | CCC(=O)c1c(O)cc(C)oc1=O |
| Not Active | CCCCCCCc1cc(O)cc(=O)o1 |
| Not Active | CCCCCC(=O)c1c(O)cc(C)oc1=O |
| Not Active | CCCCCc1cc(O)cc(=O)o1 |

Reference: ChEMBL document CHEMBL1122919, “Substituted 2-pyrones, 2-pyridones, and other congeners of elasnin as potential agents for the treatment of chronic obstructive lung diseases” (J Med Chem, 1985)
